In paper PMC9964323, “New Titanocene (IV) Dicarboxylates with Potential Cytotoxicity: Synthesis, Structure, Stability and Electrochemistry” (International Journal of Molecular Sciences, 2023):
“Also recorded” adds a separate entry of the source.

Experiments:
[1] = Cyclic voltammetry (reduction potentials); format: physicochemical; conditions: for Ered, first reduction potential: first value of cell; for Ered, first reduction potential / Ered, second reduction potential: DMF, 0.05 M Bu4NClO4, glass-carbon electrode, vs Ag/AgCl/KCl (sat.), 100 mV/s, C = 1 × 10^−1 mol L^−1; for Ered, second reduction potential: second value of cell
Protocol: It was shown that, as expected, the reduction potentials of Ti (IV) for all compounds depend on the structure of the carboxylate-containing ligand, in particular, the presence of donor and acceptor substituents in the ligand benzene ring (Table 3).
Cyclic Voltammetry experiments were conducted using an IPC Pro M potentiostat (Russia) with cyclic voltammetry (CV) and rotating disk electrode (RDE) techniques. Glass-carbon (d = 2 mm) disks were used as the working electrodes, 0.05 M Bu4NClO4 solution in DMF served as the supporting electrolyte, and Ag/AgCl/KCl (sat.) was used as the reference electrode. The potential scan rates were 100 mV/s. Samples were dissolved in the predeaerated solvent.

[2] = Stability in aqueous media (hydrolysis followed by optical absorption at 330 nm); format: physicochemical; conditions: 0.4 mM, 10% DMSO 90% water
Source text: The decrease in the concentration of the coordination compound was estimated from the decrease in the optical absorption at a wavelength of 330 nm. We considered it inappropriate to use the optical absorption maximum in the range of 230–300 nm for similar purposes because the absorption of the initial coordination compound, free carboxylate-containing ligands, and cyclopentadiene may overlap in this region.
Stability in aqueous media was studied by recording the full optical absorption spectra of solutions of the studied titanocene derivatives with an initial concentration of 0.4 mM in the solvent system (10% DMSO 90% water) at different time intervals. The change in the concentration of the studied compound was evaluated by the decrease in optical absorption at a wavelength of 330 nm. Full absorption spectra of studied compounds are presented as Figure S7 in the Supplementary Materials.

[3] = tested on: Ehrlich ascites carcinoma; design: method as in PMID 111586; conditions: cited from earlier work
[4] = tested on: adenocarcinoma of the lung, breast, and gastrointestinal tract; design: method as in PMID 111586, PMID 7988618; conditions: cited from earlier work
[5] = tested on: platinum-resistant cell lines; design: method as in PMID 8499130; conditions: cited from earlier work
[6] = tested on: metastatic breast and colon tumors; conditions: phase II clinical trials, dose of 240 mg/m^2; cited from earlier work
[7] = design: method as in PMID 9704729, PMID 9829732; conditions: phase I clinical trials; cited from earlier work

Molecule | Ered, first reduction potential [1] [V] | Ered, second reduction potential [1] [V] | hydrolysis rate / stability in aqueous media [2] | other results
O=C([O-])c1ccccc1.O=C([O-])c1ccccc1.[Ti+4].c1cc[cH-]c1.c1cc[cH-]c1 [2a, bis(η^5-cyclopentadienyl)bis(benzoato)titanium(IV)] | −0.85 | −2.17 | – | –
[N-]=[N+]=Nc1ccc(C(=O)[O-])cc1.[N-]=[N+]=Nc1ccc(C(=O)[O-])cc1.[Ti+4].c1cc[cH-]c1.c1cc[cH-]c1 [2c, bis(η^5-cyclopentadienyl)bis(4-azidobenzoato)titanium(IV)] | −0.78 | −2.01 | – | –
O=C([O-])c1cccc(F)c1.O=C([O-])c1cccc(F)c1.[Ti+4].c1cc[cH-]c1.c1cc[cH-]c1 [2d, bis(η^5-cyclopentadienyl)bis(3-fluorobenzoato)titanium(IV)] | −0.79 | −2.05 | – | –
O=C([O-])c1c(F)c(F)c(F)c(F)c1F.O=C([O-])c1c(F)c(F)c(F)c(F)c1F.[Ti+4].c1cc[cH-]c1.c1cc[cH-]c1 [2e, bis(η^5-cyclopentadienyl)bis(pentafluorobenzoato)titanium(IV)] | −0.57 | −1.81 | hydrolyzed more slowly than compound 2b; also recorded: slower | half-life time in water [2]: approximately 3 h
CC(=O)Oc1ccccc1C(=O)[O-].CC(=O)Oc1ccccc1C(=O)[O-].[Ti+4].c1cc[cH-]c1.c1cc[cH-]c1 [2f, bis(η^5-cyclopentadienyl)bis(2-acetoxybenzoato)titanium(IV)] | −0.81 | −2.11 | – | –
[Cl-].[Cl-].[Ti+4].c1cc[cH-]c1.c1cc[cH-]c1 [Cp2TiCl2, Titanocene dichloride] | −0.62 | −1.85 | lower stability in aqueous media compared to the carboxylate-containing analogues | cure ([3]; Ehrlich ascites carcinoma inoculated into mice): 80%; side effects associated with drug toxicity ([3]; Ehrlich ascites carcinoma inoculated into xenograft mice): no noticeable side effects; cytotoxicity [4]: pronounced cytotoxicity; cytotoxicity [5]: pronounced cytotoxicity; therapeutic effect [6]: did not show a therapeutic effect; dose-dependent side effects [7]: mild nephrotoxicity, fatigue, and bilierubinimia
bis(η^5-cyclopentadienyl)bis(4-benzoxybenzoato)titanium(IV) [2b] | −0.88 | −2.21 | – | half-life time in water [2]: approximately 3 h
bis(η^5-cyclopentadienyl)salicylatotitanium(IV) [2g] | −0.90 | – | Hydrolysis proceeds slowly | Reversibility of reduction ([1]; CV in DMF): reversibly reduced and oxidized and rev
